Experimental data: US20230085307A1, “PYRIDAZINONE COMPOUND AND HERBICIDE” (NISSAN CHEMICAL CORPORATION, priority 2019, published 2023)

Assays:
[1] = tested on: late watergrass; test: Test Example 1: herbicidal activity, application before weed generation under submerged conditions (Table 16, symbol A); type: in vivo, late watergrass (Echinochloa oryzicola); conditions: 320 g/ha applied herbicide
In short: (§1)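 Emulsion formulation, water-diluted to set dose, was put onto the flooded surface (4 cm depth, alluvial soil) the same day weeds were sown and 2.5-leaf rice transplanted. After 3 weeks at 25-30 °C under glass, each species was rated 0 (≤5% kill) to 5 (≥90% kill).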

[2] = tested on: Japanese bulrush; test: Test Example 1: herbicidal activity, application before weed generation under submerged conditions (Table 16, symbol B); type: in vivo, Japanese bulrush (Schoenoplectus juncoides); conditions: 320 g/ha applied herbicide
In short: as §1

[3] = tested on: lambsquarters; test: Test Example 4: herbicidal effect by soil treatment (Table 19, symbol O); type: in vivo, lambsquarters (Chenopodium album); conditions: for O: lambsquarters, herbicidal effect rating: AAH 320 g/ha; for herbicidal effect rating, O: lambsquarters: amount of applied herbicide 320 g/ha
In short: (§2)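 Step 1: sow seeds in sterilized diluvial soil, cover ~1.5 cm. Step 2: spray diluted emulsion onto soil surface at predetermined rate. Step 3: greenhouse, 25–30° C, three weeks. Step 4: grade effect on each plant by earlier criteria.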

[4] = tested on: late watergrass; test: Test Example 2: herbicidal activity, application during weed generation under submerged conditions (Table 17, symbol A); type: in vivo, late watergrass (Echinochloa oryzicola); conditions: AAH 320 g/ha; application during weed generation, submerged conditions
In short: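 3-wk visual-criteria score after one water-surface dose. Emulsion formulation, water-diluted to set rate; applied at 1–2 leaf stage; alluvial soil, 4 cm standing water; seeds co-sown; greenhouse 25–30° C.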

[5] = tested on: Chinese sprangletop; test: Test Example 3: herbicidal effect by foliage application, Wagner pot (Table 18, symbol D); type: in vivo, chinese sprangletop (Leptochloa chinensis); conditions: 320 g/ha
In short: (§3)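 Plants were sown in alluvial soil held under 0.1–0.5 cm standing water and grown 14 days in a greenhouse at 25–30 °C. An emulsifiable formulation, water-diluted to the set dose, was then sprayed onto the foliage, and effects were scored three weeks later using previously defined criteria.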

[6] = tested on: blackgrass; test: Test Example 5: herbicidal effect by foliage application, plastic box (Table 20, symbol J); type: in vivo, blackgrass (Alopecurus myosuroides); conditions: foliage application, 320 g/ha; for effect on blackgrass (J): 3 weeks after application; for herbicidal effect grade, J: blackgrass: three weeks after application
In short: (§4)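 Foliar spray test: emulsion formulation diluted in water to a set application rate, sprayed onto 14-day-old plants raised in diluvial soil at 25° C to 30° C under glass. Both herbicidal effect and crop effect rated visually three weeks later.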

[7] = tested on: chickweed; test: Test Example 4: herbicidal effect by soil treatment (Table 19, symbol P); type: in vivo, common chickweed (Stellaria media); conditions: for P: chickweed, herbicidal effect rating: AAH 320 g/ha; for herbicidal effect rating, P: chickweed: amount of applied herbicide 320 g/ha
In short: as §2

[8] = tested on: Italian ryegrass; test: Test Example 5: herbicidal effect by foliage application, plastic box (Table 20, symbol K); type: in vivo, Italian ryegrass (Lolium multiflorum); conditions: foliage application, 320 g/ha; for effect on Italian ryegrass (K): 3 weeks after application; for herbicidal effect grade, K: Italian ryegrass: three weeks after application
In short: as §4

[9] = tested on: rice flat sedge; test: Test Example 3: herbicidal effect by foliage application, Wagner pot (Table 18, symbol E); type: in vivo, rice flat sedge (Cyperus iria); conditions: 320 g/ha
In short: as §3

[10] = tested on: velvetleaf; test: Test Example 5: herbicidal effect by foliage application, plastic box (Table 20, symbol M); type: in vivo, velvetleaf (Abutilon theophrasti); conditions: foliage application, 320 g/ha; for effect on velvetleaf (M): 3 weeks after application; for herbicidal effect grade, M: velvetleaf: three weeks after application
In short: as §4

[11] = tested on: wild oat; test: Test Example 5: herbicidal effect by foliage application, plastic box (Table 20, symbol I); type: in vivo, wild oat (Avena fatua); conditions: foliage application, 320 g/ha; for effect on wild oat (I): 3 weeks after application; for herbicidal effect grade, I: wild oat: three weeks after application
In short: as §4

[12] = tested on: Italian ryegrass; test: Test Example 4: herbicidal effect by soil treatment (Table 19, symbol K); type: in vivo, Italian ryegrass (Lolium multiflorum); conditions: for K: Italian ryegrass, herbicidal effect rating: AAH 320 g/ha; for herbicidal effect rating, K: Italian ryegrass: amount of applied herbicide 320 g/ha
In short: as §2

[13] = tested on: green foxtail; test: Test Example 5: herbicidal effect by foliage application, plastic box (Table 20, symbol G); type: in vivo, green foxtail (Setaria viridis); conditions: foliage application, 320 g/ha; for effect on green foxtail (G): 3 weeks after application; for herbicidal effect grade, G: green foxtail: three weeks after application
In short: as §4

[14] = tested on: windgrass; test: Test Example 4: herbicidal effect by soil treatment (Table 19, symbol L); type: in vivo, windgrass (Apera spica-venti); conditions: AAH 320 g/ha
In short: as §2

[15] = tested on: wild oat; test: Test Example 4: herbicidal effect by soil treatment (Table 19, symbol I); type: in vivo, wild oat (Avena fatua); conditions: for I: wild oat, herbicidal effect rating: AAH 320 g/ha; for herbicidal effect rating, I: wild oat: amount of applied herbicide 320 g/ha
In short: as §2

[16] = tested on: barnyard grass; test: Test Example 5: herbicidal effect by foliage application, plastic box (Table 20, symbol H); type: in vivo, barnyard grass (Echinochloa crus-galli); conditions: foliage application, 320 g/ha; for effect on barnyard grass (H): 3 weeks after application; for herbicidal effect grade, H: barnyard grass: three weeks after application
In short: as §4

[17] = tested on: southern crabgrass; test: Test Example 4: herbicidal effect by soil treatment (Table 19, symbol F); type: in vivo, southern crabgrass (Digitaria ciliaris); conditions: for F: southern crabgrass, herbicidal effect rating: AAH 320 g/ha; for herbicidal effect rating, F: southern crabgrass: amount of applied herbicide 320 g/ha
In short: as §2

SMILES	Herbicidal effect on A: late watergrass (grade 0-5) [1]	Herbicidal effect on B: Japanese bulrush (grade 0-5) [2]	O: lambsquarters, herbicidal effect rating [3]	herbicidal effect rating, A: late watergrass [4]	herbicidal effect on D (Chinese sprangletop), rating 0-5 [5]	effect on blackgrass (J) [6]	P: chickweed, herbicidal effect rating [7]	effect on Italian ryegrass (K) [8]	herbicidal effect on E (rice flat sedge), rating 0-5 [9]	effect on velvetleaf (M) [10]	effect on wild oat (I) [11]	K: Italian ryegrass, herbicidal effect rating [12]	effect on green foxtail (G) [13]	L: windgrass, herbicidal effect rating [14]	I: wild oat, herbicidal effect rating [15]	effect on barnyard grass (H) [16]	F: southern crabgrass, herbicidal effect rating [17]	herbicidal effect rating, O: lambsquarters [3]	herbicidal effect grade, J: blackgrass [6]	herbicidal effect rating, P: chickweed [7]	further results
C=CCC(C)Oc1ccc(-c2sc3ccccc3c2-c2c(O)c(C)nn(C)c2=O)cc1 (racemic) [1-213]	5 (Herbicidal rate of 90% or more (almost completely withered))	5 (Herbicidal rate of 90% or more (almost completely withered))	0 (Herbicidal rate of 5% or less (almost no effect))	3 (Herbicidal rate of 40% or more and less than 70%)	4 (Herbicidal rate of 70% or more and less than 90%)	5 (Herbicidal rate of 90% or more (almost completely withered))	3 (Herbicidal rate of 40% or more and less than 70%)	4 (Herbicidal rate of 70% or more and less than 90%)	3 (Herbicidal rate of 40% or more and less than 70%)	5 (Herbicidal rate of 90% or more (almost completely withered))	3 (Herbicidal rate of 40% or more and less than 70%)	3 (Herbicidal rate of 40% or more and less than 70%)	5 (Herbicidal rate of 90% or more (almost completely withered))	2 (Herbicidal rate of 20% or more and less than 40%)	0 (Herbicidal rate of 5% or less (almost no effect))	5 (Herbicidal rate of 90% or more (almost completely withered))	0 (Herbicidal rate of 5% or less (almost no effect))	–	–	–	–
C#CC(C)Oc1ccc(-c2sc3ccccc3c2-c2c(O)c(C)nn(C)c2=O)cc1 (racemic) [1-217]	4 (Herbicidal rate of 70% or more and less than 90%)	5 (Herbicidal rate of 90% or more (almost completely withered))	2 (Herbicidal rate of 20% or more and less than 40%)	0 (Herbicidal rate of 5% or less (almost no effect))	5 (Herbicidal rate of 90% or more (almost completely withered))	4 (Herbicidal rate of 70% or more and less than 90%)	5 (Herbicidal rate of 90% or more (almost completely withered))	5 (Herbicidal rate of 90% or more (almost completely withered))	3 (Herbicidal rate of 40% or more and less than 70%)	5 (Herbicidal rate of 90% or more (almost completely withered))	3 (Herbicidal rate of 40% or more and less than 70%)	0 (Herbicidal rate of 5% or less (almost no effect))	4 (Herbicidal rate of 70% or more and less than 90%)	0 (Herbicidal rate of 5% or less (almost no effect))	0 (Herbicidal rate of 5% or less (almost no effect))	5 (Herbicidal rate of 90% or more (almost completely withered))	0 (Herbicidal rate of 5% or less (almost no effect))	–	–	–	–
COCC(C)Oc1ccc(-c2sc3ccccc3c2-c2c(O)c(C)nn(C)c2=O)cc1 (racemic) [1-228]	5 (Herbicidal rate of 90% or more (almost completely withered))	5 (Herbicidal rate of 90% or more (almost completely withered))	5 (Herbicidal rate of 90% or more (almost completely withered))	5 (Herbicidal rate of 90% or more (almost completely withered))	5 (Herbicidal rate of 90% or more (almost completely withered))	5 (Herbicidal rate of 90% or more (almost completely withered))	4 (Herbicidal rate of 70% or more and less than 90%)	4 (Herbicidal rate of 70% or more and less than 90%)	4 (Herbicidal rate of 70% or more and less than 90%)	5 (Herbicidal rate of 90% or more (almost completely withered))	0 (Herbicidal rate of 5% or less (almost no effect))	4 (Herbicidal rate of 70% or more and less than 90%)	5 (Herbicidal rate of 90% or more (almost completely withered))	–	0 (Herbicidal rate of 5% or less (almost no effect))	5 (Herbicidal rate of 90% or more (almost completely withered))	4 (Herbicidal rate of 70% or more and less than 90%)	–	–	–	–
CC(=O)c1ccc(-c2sc3ccccc3c2-c2c(O)c(C)nn(C)c2=O)cc1 [1-041]	3 (Herbicidal rate of 40% or more and less than 70%)	4 (Herbicidal rate of 70% or more and less than 90%)	–	0 (Herbicidal rate of 5% or less (almost no effect))	4 (Herbicidal rate of 70% or more and less than 90%)	–	–	–	5 (Herbicidal rate of 90% or more (almost completely withered))	–	–	–	–	–	–	–	–	5 (Herbicidal rate of 90% or more (almost completely withered))	0 (Herbicidal rate of 5% or less (almost no effect))	0 (Herbicidal rate of 5% or less (almost no effect))	herbicidal effect grade, K: Italian ryegrass [8]: 5 (Herbicidal rate of 90% or more (almost completely withered)); herbicidal effect grade, M: velvetleaf [10]: 5 (Herbicidal rate of 90% or more (almost completely withered)); herbicidal effect grade, I: wild oat [11]: 1 (Herbicidal rate of 5% or more and less than 20%); herbicidal effect rating, K: Italian ryegrass [12]: 5 (Herbicidal rate of 90% or more (almost completely withered)); herbicidal effect grade, G: green foxtail [13]: 1 (Herbicidal rate of 5% or more and less than 20%); herbicidal effect rating, I: wild oat [15]: 1 (Herbicidal rate of 5% or more and less than 20%); herbicidal effect grade, H: barnyard grass [16]: 0 (Herbicidal rate of 5% or less (almost no effect)); herbicidal effect rating, F: southern crabgrass [17]: 2 (Herbicidal rate of 20% or more and less than 40%)
Cc1cc(-c2sc3ccccc3c2-c2c(O)c(C)nn(C)c2=O)ccc1F [1-051]	4 (Herbicidal rate of 70% or more and less than 90%)	0 (Herbicidal rate of 5% or less (almost no effect))	–	2 (Herbicidal rate of 20% or more and less than 40%)	0 (Herbicidal rate of 5% or less (almost no effect))	–	–	–	5 (Herbicidal rate of 90% or more (almost completely withered))	–	–	–	–	–	–	–	–	4 (Herbicidal rate of 70% or more and less than 90%)	0 (Herbicidal rate of 5% or less (almost no effect))	3 (Herbicidal rate of 40% or more and less than 70%)	herbicidal effect grade, K: Italian ryegrass [8]: 3 (Herbicidal rate of 40% or more and less than 70%); herbicidal effect grade, M: velvetleaf [10]: 5 (Herbicidal rate of 90% or more (almost completely withered)); herbicidal effect grade, I: wild oat [11]: 3 (Herbicidal rate of 40% or more and less than 70%); herbicidal effect rating, K: Italian ryegrass [12]: 3 (Herbicidal rate of 40% or more and less than 70%); herbicidal effect grade, G: green foxtail [13]: 5 (Herbicidal rate of 90% or more (almost completely withered)); herbicidal effect rating, I: wild oat [15]: 0 (Herbicidal rate of 5% or less (almost no effect)); herbicidal effect grade, H: barnyard grass [16]: 3 (Herbicidal rate of 40% or more and less than 70%); herbicidal effect rating, F: southern crabgrass [17]: 4 (Herbicidal rate of 70% or more and less than 90%)
